Results published in US20200407717A1, “METHODS OF MODULATING ANTISENSE ACTIVITY” (Ionis Pharmaceuticals, Inc., priority 2018, published 2020).

Tested on: A431 cells
Assay: Localization in early and late endosomes after siRNA treatment
Assay type: cell-based
Conditions: 20 cells; for % ASO EE/Total ASO: early endosomes (EEA1); for % ASO LE/Total ASO: late endosomes (LAMP1)
Description: EGFR levels in A431 cells were reduced using two siRNAs targeting EGFR, Assay ID 42833 and Assay ID 644 (ThermoFisher). A siRNA targeting luciferase was used for a control. Treatment of cells with the EGFR siRNA reduced EGFR protein levels more than 80%. Following siRNA treatment, cells were treated with additional compounds to test for antisense compound localization, activity, or uptake, as described below.
Following siRNA treatment, cells were treated with compound no. 446654 for two hours. EEA1 was labeled as in Example 2 and LAMP1 was labeled with an antibody. EEA1 is a marker for early endosomes and LAMP1 is a marker for late endosomes. Co-localization of compound no. 446654 with EEA1 and with LAMP1 was observed. The number of 446654 loci co-localized with EEA1 or LAMP1 was counted in 20 cells, and compared to the total number of 446654 loci. The difference observed with control siRNA treatment vs EGFR siRNA treatment shown in Table 22 is significant, as determined by the student T-test (p<0.05), whereas the difference shown in Table 23 was not determined to be significant by the student T-test.

Cy3-^mCesTesGes^mCesTesAdsGds^mCdsTds^mCdsTdsGdsGdsAdsTesTesTesGesAe (antisense CTGCTAGCCTCTGGATTTGA; listed as DNA, chemistry not fully specified) [compound 446654, Cy3-labeled PS-ASO]
% ASO EE/Total ASO (Control luciferase siRNA): 15%
% ASO EE/Total ASO (EGFR siRNA-1): 26%
% ASO LE/Total ASO (Control luciferase siRNA): 79%
% ASO LE/Total ASO (EGFR siRNA-1): 66%
